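Cells were grown in 96-well plates and exposed to each compound for 48 hours at five concentrations; endpoints were interpolated linearly between bracketing concentrations, or set to the highest concentration if not reached. GI50 marks 50% less growth.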 Activity calls are given as the source filed them. Rule as the data show it: active = GI50 up to about 1.1 µM and inactive = higher.
Tests used:
Test in all cases: NCI-60 cell line screen, 48 h
NCI-H23 = test system: NCI-H23
OVCAR-5 = test system: OVCAR-5
ACHN = test system: ACHN
SF-295 = test system: SF-295
SNB-19 = test system: SNB-19
CCRF-CEM = test system: CCRF-CEM
MDA-MB-435 = test system: MDA-MB-435
A549 = test system: A549
RXF 393 = test system: RXF 393
786-0 = test system: 786-0
HOP-62 = test system: HOP-62
UACC-62 = test system: UACC-62
SF-268 = test system: SF-268
SK-MEL-5 = test system: SK-MEL-5
MDA-N = test system: MDA-N
SK-OV-3 = test system: SK-OV-3
BT-549 = test system: BT-549
SN12C = test system: SN12C
SK-MEL-2 = test system: SK-MEL-2
COLO 205 = test system: COLO 205
HCT-116 = test system: HCT-116
Malme-3M = test system: Malme-3M
HCT-15 = test system: HCT-15
SF-539 = test system: SF-539
SK-MEL-28 = test system: SK-MEL-28
MDA-MB-231 = test system: MDA-MB-231
KM12 = test system: KM12
K562 = test system: K562
NCI/ADR-RES = test system: NCI/ADR-RES
IGROV-1 = test system: IGROV-1
PC-3 = test system: PC-3
HOP-92 = test system: HOP-92
HT-29 = test system: HT-29
SW-620 = test system: SW-620
EKVX = test system: EKVX
OVCAR-4 = test system: OVCAR-4
NCI-H460 = test system: NCI-H460
MOLT-4 = test system: MOLT-4
LOX IMVI = test system: LOX IMVI
NCI-H226 = test system: NCI-H226
Hs-578T = test system: Hs-578T
OVCAR-8 = test system: OVCAR-8
DU-145 = test system: DU-145
M14 = test system: M14
UACC-257 = test system: UACC-257
UO-31 = test system: UO-31
HCC 2998 = test system: HCC 2998
TK-10 = test system: TK-10
NCI-H522 = test system: NCI-H522
MCF7 = test system: MCF7
CAKI-1 = test system: CAKI-1
T47D = test system: T47D
OVCAR-3 = test system: OVCAR-3
SNB-75 = test system: SNB-75
HL-60 = test system: HL-60
A498 = test system: A498
RPMI-8226 = test system: RPMI-8226
U-251 = test system: U-251
SR = test system: SR

SMILES: CN(CCCCN(C)CCc1ccc(Cl)c(Cl)c1)CCCCN1CCCC1
- GI50 (NCI-H23): 1710 nM (inactive)
- GI50 (OVCAR-5): 2360 nM (inactive)
- GI50 (ACHN): 1910 nM (inactive)
- GI50 (SF-295): 1830 nM (inactive)
- GI50 (SNB-19): 2260 nM (inactive)
- GI50 (CCRF-CEM): < 23.5 nM (active)
- GI50 (MDA-MB-435): 465 nM (active)
- GI50 (A549): 1650 nM (inactive)
- GI50 (RXF 393): 1320 nM (inactive)
- GI50 (786-0): 1250 nM (inactive)
- GI50 (HOP-62): 1830 nM (inactive)
- GI50 (UACC-62): 1930 nM (inactive)
- GI50 (SF-268): 1460 nM (inactive)
- GI50 (SK-MEL-5): 902 nM (active)
- GI50 (MDA-N): 1260 nM (inactive)
- GI50 (SK-OV-3): 2180 nM (inactive)
- GI50 (BT-549): 1870 nM (inactive)
- GI50 (SN12C): 1980 nM (inactive)
- GI50 (SK-MEL-2): 1630 nM (inactive)
- GI50 (COLO 205): 1290 nM (inactive)
- GI50 (HCT-116): 1510 nM (inactive)
- GI50 (Malme-3M): 1910 nM (inactive)
- GI50 (HCT-15): 1690 nM
- GI50 (SF-539): 1010 nM (active)
- GI50 (SK-MEL-28): 533 nM (active)
- GI50 (MDA-MB-231): 750 nM (active)
- GI50 (KM12): 705 nM (active)
- GI50 (K562): 877 nM (active)
- GI50 (NCI/ADR-RES): 3230 nM (inactive)
- GI50 (IGROV-1): 2200 nM (inactive)
- GI50 (PC-3): 1570 nM (inactive)
- GI50 (HOP-92): 1260 nM (inactive)
- GI50 (HT-29): 494 nM (active)
- GI50 (SW-620): 1210 nM (inactive)
- GI50 (EKVX): 1630 nM (inactive)
- GI50 (OVCAR-4): 1830 nM (inactive)
- GI50 (NCI-H460): 1480 nM (inactive)
- GI50 (MOLT-4): 3080 nM (inactive)
- GI50 (LOX IMVI): 912 nM (active)
- GI50 (NCI-H226): 2260 nM (inactive)
- GI50 (Hs-578T): 977 nM (active)
- GI50 (OVCAR-8): 2090 nM (inactive)
- GI50 (DU-145): 2730 nM (inactive)
- GI50 (M14): 787 nM (active)
- GI50 (UACC-257): 1630 nM (inactive)
- GI50 (UO-31): 509 nM (active)
- GI50 (HCC 2998): 195 nM (active)
- GI50 (TK-10): 1610 nM (inactive)
- GI50 (NCI-H522): 977 nM (active)
- GI50 (MCF7): 1460 nM (inactive)
- GI50 (CAKI-1): 1600 nM (inactive)
- GI50 (T47D): 2000 nM (inactive)
- GI50 (OVCAR-3): 2050 nM (inactive)
- GI50 (SNB-75): 1730 nM (inactive)
- GI50 (HL-60): 1490 nM (inactive)
- GI50 (A498): 1720 nM (inactive)
- GI50 (RPMI-8226): 649 nM (active)
- GI50 (U-251): 745 nM (active)

SMILES: CCOC(=O)CCc1cn2cc(Br)nc(OC)c2n1
- GI50 (NCI-H23): 67500 nM (inactive)
- GI50 (SF-295): 57700 nM (inactive)
- GI50 (SNB-19): > 100000 nM (inactive)
- GI50 (CCRF-CEM): 10100 nM (inactive)
- GI50 (MDA-MB-435): 2820 nM (inactive)
- GI50 (A549): 62400 nM (inactive)
- GI50 (RXF 393): 40200 nM (inactive)
- GI50 (786-0): > 100000 nM (inactive)
- GI50 (HOP-62): 53200 nM (inactive)
- GI50 (UACC-62): 36000 nM (inactive)
- GI50 (SF-268): > 100000 nM (inactive)
- GI50 (SK-MEL-5): 7850 nM (inactive)
- GI50 (MDA-N): 3100 nM (inactive)
- GI50 (SK-OV-3): 48100 nM (inactive)
- GI50 (BT-549): > 100000 nM (inactive)
- GI50 (SN12C): 75900 nM (inactive)
- GI50 (SK-MEL-2): > 100000 nM (inactive)
- GI50 (COLO 205): 9120 nM (inactive)
- GI50 (HCT-116): 14800 nM (inactive)
- GI50 (Malme-3M): > 100000 nM (inactive)
- GI50 (HCT-15): 6500 nM
- GI50 (SF-539): 50500 nM (inactive)
- GI50 (SK-MEL-28): > 100000 nM (inactive)
- GI50 (MDA-MB-231): 39200 nM (inactive)
- GI50 (KM12): 5410 nM (inactive)
- GI50 (K562): 4750 nM (inactive)
- GI50 (NCI/ADR-RES): 24900 nM (inactive)
- GI50 (IGROV-1): 65600 nM (inactive)
- GI50 (PC-3): 50900 nM (inactive)
- GI50 (HT-29): 17900 nM (inactive)
- GI50 (SW-620): 16200 nM (inactive)
- GI50 (SR): 72600 nM (inactive)
- GI50 (EKVX): > 100000 nM (inactive)
- GI50 (OVCAR-4): > 100000 nM (inactive)
- GI50 (NCI-H460): > 100000 nM (inactive)
- GI50 (MOLT-4): 13300 nM (inactive)
- GI50 (LOX IMVI): 90200 nM (inactive)
- GI50 (NCI-H226): > 100000 nM (inactive)
- GI50 (Hs-578T): > 100000 nM (inactive)
- GI50 (OVCAR-8): 59200 nM (inactive)
- GI50 (DU-145): 51600 nM (inactive)
- GI50 (M14): > 100000 nM (inactive)
- GI50 (UACC-257): > 100000 nM (inactive)
- GI50 (UO-31): 23200 nM (inactive)
- GI50 (HCC 2998): > 100000 nM (inactive)
- GI50 (TK-10): > 100000 nM (inactive)
- GI50 (NCI-H522): 81800 nM (inactive)
- GI50 (MCF7): 16200 nM (inactive)
- GI50 (CAKI-1): > 100000 nM (inactive)
- GI50 (T47D): 46300 nM (inactive)
- GI50 (OVCAR-3): 57700 nM (inactive)
- GI50 (SNB-75): 26100 nM (inactive)
- GI50 (HL-60): > 100000 nM (inactive)
- GI50 (RPMI-8226): 44000 nM (inactive)
- GI50 (U-251): 65600 nM (inactive)

From ChEMBL document CHEMBL1201862, “PubChem BioAssay data set” (2004)
